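Exposure lasted 48 hours, with cells grown in 96-well plates and compounds tested at five concentrations. TGI denotes the concentration required for complete inhibition of growth.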
Columns and labels:
Test in all cases: NCI tumour cell line growth inhibition, 48 h
HL-60(TB) leukemia = test system: HL-60(TB) leukemia
NCI-H460 lung = test system: NCI-H460 lung
MOLT-4 leukemia = test system: MOLT-4 leukemia
SF-295 CNS = test system: SF-295 CNS
SN12K1 renal = test system: SN12K1 renal
UACC-257 melanoma = test system: UACC-257 melanoma
DMS 273 small cell lung = test system: DMS 273 small cell lung
XF 498 CNS = test system: XF 498 CNS
OVCAR-4 ovarian = test system: OVCAR-4 ovarian
CCRF-CEM leukemia = test system: CCRF-CEM leukemia
SNB-19 CNS = test system: SNB-19 CNS
NCI/ADR-RES ovarian = test system: NCI/ADR-RES ovarian
CAKI-1 renal = test system: CAKI-1 renal
M19-MEL melanoma = test system: M19-MEL melanoma
IGROV1 ovarian = test system: IGROV1 ovarian
UACC-62 melanoma = test system: UACC-62 melanoma
SNB-78 CNS = test system: SNB-78 CNS
OVCAR-3 ovarian = test system: OVCAR-3 ovarian
RPMI-8226 leukemia = test system: RPMI-8226 leukemia
DMS 114 small cell lung = test system: DMS 114 small cell lung
SF-268 CNS = test system: SF-268 CNS
UO-31 renal = test system: UO-31 renal
NCI-H226 lung = test system: NCI-H226 lung
SK-MEL-2 melanoma = test system: SK-MEL-2 melanoma
HT29 colon = test system: HT29 colon
KM20L2 colon = test system: KM20L2 colon
SK-MEL-28 melanoma = test system: SK-MEL-28 melanoma
MCF7 breast = test system: MCF7 breast
SW-620 colon = test system: SW-620 colon
SK-MEL-5 melanoma = test system: SK-MEL-5 melanoma
SF-539 CNS = test system: SF-539 CNS
HCC-2998 colon = test system: HCC-2998 colon
SN12C renal = test system: SN12C renal
HOP-18 NSCLC = test system: HOP-18 NSCLC
MALME-3M melanoma = test system: MALME-3M melanoma
SNB-75 CNS = test system: SNB-75 CNS
NCI-H522 lung = test system: NCI-H522 lung
EKVX NSCLC = test system: EKVX NSCLC
LOX IMVI melanoma = test system: LOX IMVI melanoma
HCT-15 colon = test system: HCT-15 colon
SK-OV-3 ovarian = test system: SK-OV-3 ovarian
K-562 leukemia = test system: K-562 leukemia
A498 renal = test system: A498 renal
P388 leukemia = test system: P388 leukemia
OVCAR-5 ovarian = test system: OVCAR-5 ovarian
NCI-H23 lung = test system: NCI-H23 lung
HCT-116 colon = test system: HCT-116 colon
A549 NSCLC = test system: A549 NSCLC
KM12 colon = test system: KM12 colon
COLO 205 colon = test system: COLO 205 colon
RXF 393 renal = test system: RXF 393 renal
DLD-1 colon = test system: DLD-1 colon
P388/ADR leukemia = test system: P388/ADR leukemia
OVCAR-8 ovarian = test system: OVCAR-8 ovarian
U251 CNS = test system: U251 CNS
HOP-62 NSCLC = test system: HOP-62 NSCLC
HOP-92 NSCLC = test system: HOP-92 NSCLC
786-0 renal = test system: 786-0 renal
ACHN renal = test system: ACHN renal
LXFL 529 NSCLC = test system: LXFL 529 NSCLC
SR leukemia = test system: SR leukemia
RXF-631 renal = test system: RXF-631 renal
TK-10 renal = test system: TK-10 renal
M14 melanoma = test system: M14 melanoma

Measured: TGI

CC1(C)OC2CC(=O)OCC23C1CC(=O)C1(C)C3CCC2(C)C(c3ccoc3)OC(=O)C3OC321 (stereo unspecified)
7.03 µM: OVCAR-8 ovarian
> 39.5 µM: SN12C renal | P388 leukemia
> 58 µM: EKVX NSCLC
> 70.3 µM: MCF7 breast | K-562 leukemia
> 109 µM: SNB-75 CNS
not listed: HOP-92 NSCLC | 786-0 renal | ACHN renal | LXFL 529 NSCLC | SR leukemia | RXF-631 renal | TK-10 renal | M14 melanoma
> 125 µM: all other assays above

NC(=O)c1ncn2c1NC(=O)CC2
> 31.6 µM: P388 leukemia
> 86.8 µM: SNB-78 CNS
not listed: 786-0 renal | ACHN renal | LXFL 529 NSCLC | SR leukemia | RXF-631 renal | TK-10 renal | M14 melanoma
> 100 µM: all other assays above

COc1cc2c(c(O)c1O)-c1ccc(OC)c(=O)cc1C(NC(C)=O)CC2 (stereo unspecified)
34.8 µM: LOX IMVI melanoma
26.1 µM: M19-MEL melanoma
> 89.9 µM: A498 renal
5.29 µM: HL-60(TB) leukemia
37.1 µM: CCRF-CEM leukemia
60.4 µM: SK-OV-3 ovarian
29.1 µM: K-562 leukemia
> 43.7 µM: RPMI-8226 leukemia
45.7 µM: UACC-62 melanoma
24 µM: SF-539 CNS
16.6 µM: SNB-75 CNS
6.48 µM: NCI-H522 lung
87.7 µM: NCI-H460 lung
43.8 µM: RXF 393 renal
> 80.8 µM: SN12C renal
51.6 µM: SW-620 colon
> 62.8 µM: HCT-116 colon
41.4 µM: SF-295 CNS
74.3 µM: SR leukemia
> 92.9 µM: RXF-631 renal
16.2 µM: SK-MEL-5 melanoma
> 84.2 µM: OVCAR-4 ovarian
> 70.3 µM: HT29 colon
> 64.3 µM: MOLT-4 leukemia
92.7 µM: NCI-H226 lung
8.3 µM: OVCAR-3 ovarian
25.8 µM: U251 CNS
31.1 µM: HOP-92 NSCLC
> 78.1 µM: HCC-2998 colon
11 µM: KM20L2 colon
12.6 µM: COLO 205 colon
38.5 µM: XF 498 CNS
25.7 µM: KM12 colon
> 82.8 µM: 786-0 renal
54.7 µM: NCI-H23 lung
16.5 µM: SK-MEL-2 melanoma
44.3 µM: LXFL 529 NSCLC
not listed: SN12K1 renal | NCI/ADR-RES ovarian | DMS 114 small cell lung | MCF7 breast | P388 leukemia | P388/ADR leukemia
> 100 µM: all other assays above
